According to ChEMBL document CHEMBL4014354, “2'-Chloro,2'-fluoro Ribonucleotide Prodrugs with Potent Pan-genotypic Activity against Hepatitis C Virus Replication in Culture” (J Med Chem, 2017):

Experiments:
[1] = Cytotoxicity against human CEM cells assessed as inhibition of cell proliferation after 4 days by MTT assay; type: cell-based, CCRF-CEM
[2] = Cytotoxicity against human HuH7 cells assessed as inhibition of cell proliferation after 4 days by MTS assay; type: cell-based, Huh-7
[3] = Cytotoxicity against human PBMC assessed as inhibition of cell proliferation after 5 days by MTT assay; type: cell-based
Hepatitis C virus = assay: Antiviral activity against HCV genotype 1b harboring wild type NS5B infected in human HuH7 cells assessed as inhibition of viral RNA replication after 5 days by RT-PCR method; type: functional, cell-based, Hepacivirus hominis; conditions: Huh-7, 120 h
[4] = Cytotoxicity against African green monkey Vero cells assessed as inhibition of cell proliferation after 3 days by MTT assay; type: cell-based; conditions: chlorocebus sabaeus
[5] = system: cytochrome c oxidase subunit 2 DNA (mitochondrial DNA) levels; assay: Mitochondrial toxicity in human HepG2 cells assessed as inhibition of cytochrome c oxidase subunit 2 DNA levels measured on day 14 by RT-PCR method; type: cell-based

With `Nc1ccn([C@@H]2O[C@H](CO)[C@@H](O)[C@]2(F)Cl)c(=O)n1` the CC50 at 96 h [1] was > 100 µM, the CC50 at 96 h [2] was > 10 µM and the CC50 at 120 h [3] was 12 µM. For the same molecule, the EC50 (Hepatitis C virus) was 0.3 µM, the EC90 (Hepatitis C virus) was 0.9 µM and the CC50 at 72 h [4] was 8.4 µM.
In the case of `Nc1ncnc2c1ncn2[C@@H]1O[C@H](CO)C(O)C1(F)Cl` (single isomer, unassigned), the CC50 at 96 h [1] is reported as > 100 µM, the CC50 at 96 h [2] is reported as > 10 µM and the CC50 at 120 h [3] is reported as > 100 µM. For the same molecule, the EC50 (Hepatitis C virus) was > 10 µM, the EC90 (Hepatitis C virus) was > 10 µM and the CC50 at 72 h [4] was > 100 µM.
With `Nc1nc2c(ncn2[C@@H]2O[C@H](CO)[C@@H](O)[C@]2(F)Cl)c(=O)[nH]1` the CC50 at 96 h [1] was > 100 µM, the CC50 at 96 h [2] was > 33 µM and the CC50 at 120 h [3] was > 100 µM. The EC50 (Hepatitis C virus) was 19 µM, the EC90 (Hepatitis C virus) was 33 µM and the CC50 at 72 h [4] was > 100 µM.
With `Nc1ncnc2c1c(I)cn2[C@@H]1O[C@H](CO)C(O)C1(F)Cl` (single isomer, unassigned) the CC50 at 96 h [1] was 7.3 µM, the CC50 at 96 h [2] was > 10 µM and the CC50 at 120 h [3] was 6.6 µM. The EC50 (Hepatitis C virus) was > 10 µM, the EC90 (Hepatitis C virus) was > 10 µM and the CC50 at 72 h [4] was 11.5 µM.
In the case of `CC(C)OC(=O)[C@H](C)NP(=O)(OC[C@H]1O[C@@H](n2cnc3c(N)ncnc32)C(F)(Cl)C1O)Oc1ccccc1` (single isomer, unassigned), the CC50 at 96 h [1] is reported as 36.3 µM, the CC50 at 96 h [2] is reported as > 33 µM and the CC50 at 120 h [3] is reported as 84.8 µM. The EC50 (Hepatitis C virus) was 0.6 µM, the EC90 (Hepatitis C virus) was 2.1 µM and the CC50 at 72 h [4] was 53.9 µM.
With `CC(C)OC(=O)[C@H](C)NP(=O)(OC[C@H]1O[C@@H](n2cnc3c(=O)[nH]c(N)nc32)[C@@](F)(Cl)[C@@H]1O)Oc1ccccc1` (stereo partly specified) the CC50 at 96 h [1] was > 100 µM, the CC50 at 96 h [2] was > 10 µM and the CC50 at 120 h [3] was > 100 µM. For the same molecule, the EC50 (Hepatitis C virus) was 0.3 µM, the EC90 (Hepatitis C virus) was 0.8 µM and the CC50 at 72 h [4] was > 100 µM.
For `Nc1ncnc2c1c(F)cn2[C@@H]1O[C@H](CO)C(O)C1(F)Cl` (single isomer, unassigned), the CC50 at 96 h [1] was 19.9 µM, the CC50 at 96 h [2] was > 10 µM and the CC50 at 120 h [3] was 82.6 µM. For the same molecule, the EC50 (Hepatitis C virus) was > 10 µM, the EC90 (Hepatitis C virus) was > 10 µM and the CC50 at 72 h [4] was 42.4 µM.
In the case of `Nc1ncnc2c1ccn2[C@@H]1O[C@H](CO)C(O)C1(F)Cl` (single isomer, unassigned), the CC50 at 96 h [2] is reported as > 10 µM, the EC50 (Hepatitis C virus) is reported as > 10 µM and the EC90 (Hepatitis C virus) is reported as > 10 µM.
For `CC(C)OC(=O)[C@H](C)NP(=O)(OC[C@H]1O[C@@H](n2ccc(N)nc2=O)[C@@](F)(Cl)[C@@H]1O)Oc1ccccc1` (stereo partly specified), the CC50 at 96 h [1] was > 100 µM, the CC50 at 96 h [2] was > 10 µM and the CC50 at 120 h [3] was > 100 µM. For the same molecule, the EC50 (Hepatitis C virus) was 0.1 µM, the EC90 (Hepatitis C virus) was 0.3 µM and the CC50 at 72 h [4] was > 100 µM.
For `CC(C)OC(=O)[C@H](C)NP(=O)(OC[C@H]1O[C@@H](n2ccc3c(N)ncnc32)C(F)(Cl)C1O)Oc1ccccc1` (single isomer, unassigned), the CC50 at 96 h [1] was 69 µM, the CC50 at 96 h [2] was > 10 µM and the CC50 at 120 h [3] was > 100 µM. For the same molecule, the EC50 (Hepatitis C virus) was > 10 µM, the EC90 (Hepatitis C virus) was > 10 µM and the CC50 at 72 h [4] was > 100 µM.
With `Nc1ccn([C@@H]2CS[C@H](CO)O2)c(=O)n1` [LAMIVUDINE] the IC50 at 14 days [5] was > 10 µM.
In the case of `C[C@@]1(O)[C@H](O)[C@@H](CO)O[C@H]1n1ccc(N)nc1=O`, the CC50 at 96 h [1] is reported as > 100 µM, the CC50 at 96 h [2] is reported as > 10 µM and the CC50 at 120 h [3] is reported as > 100 µM. For the same molecule, the EC50 (Hepatitis C virus) was 1.7 µM, the EC90 (Hepatitis C virus) was 6.5 µM and the CC50 at 72 h [4] was > 100 µM.
With `CC(C)OC(=O)[C@H](C)NP(=O)(OC[C@H]1O[C@@H](n2cc(I)c3c(N)ncnc32)C(F)(Cl)C1O)Oc1ccccc1` (single isomer, unassigned) the CC50 at 96 h [1] was 69.3 µM, the CC50 at 96 h [2] was > 10 µM and the CC50 at 120 h [3] was > 100 µM. The EC50 (Hepatitis C virus) was > 10 µM, the EC90 (Hepatitis C virus) was > 10 µM and the CC50 at 72 h [4] was > 100 µM.
With `CC(C)OC(=O)[C@H](C)NP(=O)(OC[C@H]1O[C@@H](n2cc(F)c3c(N)ncnc32)C(F)(Cl)C1O)Oc1ccccc1` (single isomer, unassigned) the CC50 at 96 h [1] was 55.3 µM, the CC50 at 96 h [2] was > 10 µM and the CC50 at 120 h [3] was 99.7 µM. The EC50 (Hepatitis C virus) was > 10 µM, the EC90 (Hepatitis C virus) was > 10 µM and the CC50 at 72 h [4] was 60.9 µM.
